Experimental data reported in ChEMBL document CHEMBL1134304, “Discovery of novel p-arylthio cinnamides as antagonists of leukocyte function-associated antigen-1/intercellular adhesion molecule-1 interaction. 4. Structure-activity relationship of substituents on the benzene ring of the cinnamide” (J Med Chem, 2001).

Experiments:
[1] = target: T1, Intercellular adhesion molecule (ICAM-1), Integrin alpha-L/beta-2 (Homo sapiens, UniProt P05107+P20701); experiment: Inhibition of LFA-1 mediated JY-8 cell adhesion to ICAM-1, range (2-2); format: functional, cell-based
T1 sequence (P05362 whole entry, one chain of several, further chain): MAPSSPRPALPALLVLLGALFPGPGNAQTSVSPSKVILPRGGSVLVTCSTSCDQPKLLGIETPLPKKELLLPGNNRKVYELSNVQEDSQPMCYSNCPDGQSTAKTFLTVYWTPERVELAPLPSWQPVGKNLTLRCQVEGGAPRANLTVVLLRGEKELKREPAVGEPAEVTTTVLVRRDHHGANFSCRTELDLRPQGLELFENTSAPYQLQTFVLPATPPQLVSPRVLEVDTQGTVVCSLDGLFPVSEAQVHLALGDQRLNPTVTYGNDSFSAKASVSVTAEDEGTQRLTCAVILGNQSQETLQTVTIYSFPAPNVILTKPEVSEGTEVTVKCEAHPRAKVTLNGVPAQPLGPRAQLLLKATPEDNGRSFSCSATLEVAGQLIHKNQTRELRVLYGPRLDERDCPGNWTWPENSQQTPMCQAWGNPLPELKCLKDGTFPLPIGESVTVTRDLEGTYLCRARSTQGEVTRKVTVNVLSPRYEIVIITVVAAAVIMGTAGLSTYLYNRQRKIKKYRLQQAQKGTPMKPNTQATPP
T1 sequence (P05107 whole entry, one chain of several): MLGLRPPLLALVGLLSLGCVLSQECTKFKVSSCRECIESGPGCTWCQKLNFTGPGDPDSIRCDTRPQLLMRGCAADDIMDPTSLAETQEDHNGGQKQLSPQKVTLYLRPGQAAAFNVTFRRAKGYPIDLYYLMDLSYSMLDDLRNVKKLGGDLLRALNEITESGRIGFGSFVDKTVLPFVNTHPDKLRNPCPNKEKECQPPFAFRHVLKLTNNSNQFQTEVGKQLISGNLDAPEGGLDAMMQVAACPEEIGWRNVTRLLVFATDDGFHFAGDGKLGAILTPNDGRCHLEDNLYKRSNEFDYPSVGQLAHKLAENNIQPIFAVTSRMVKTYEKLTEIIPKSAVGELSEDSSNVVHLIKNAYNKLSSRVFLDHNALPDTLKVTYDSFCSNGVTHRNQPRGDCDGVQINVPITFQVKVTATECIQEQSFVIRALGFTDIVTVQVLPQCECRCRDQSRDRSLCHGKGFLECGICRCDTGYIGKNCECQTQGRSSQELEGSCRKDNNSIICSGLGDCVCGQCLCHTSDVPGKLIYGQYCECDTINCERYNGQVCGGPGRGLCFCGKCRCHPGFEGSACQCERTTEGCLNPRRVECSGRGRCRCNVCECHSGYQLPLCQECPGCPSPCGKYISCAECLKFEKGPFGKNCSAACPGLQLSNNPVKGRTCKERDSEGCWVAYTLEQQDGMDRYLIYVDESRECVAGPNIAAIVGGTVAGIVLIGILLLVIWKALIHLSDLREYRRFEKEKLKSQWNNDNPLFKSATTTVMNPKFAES

Integrin alpha-L [2] = target: T2, Integrin alpha-L (Homo sapiens, UniProt P20701); experiment: Inhibition of intercellular adhesion molecule-1 (ICAM-1) binding to recombinant LFA-1, range (4-7)
T2 sequence (P20701 whole entry): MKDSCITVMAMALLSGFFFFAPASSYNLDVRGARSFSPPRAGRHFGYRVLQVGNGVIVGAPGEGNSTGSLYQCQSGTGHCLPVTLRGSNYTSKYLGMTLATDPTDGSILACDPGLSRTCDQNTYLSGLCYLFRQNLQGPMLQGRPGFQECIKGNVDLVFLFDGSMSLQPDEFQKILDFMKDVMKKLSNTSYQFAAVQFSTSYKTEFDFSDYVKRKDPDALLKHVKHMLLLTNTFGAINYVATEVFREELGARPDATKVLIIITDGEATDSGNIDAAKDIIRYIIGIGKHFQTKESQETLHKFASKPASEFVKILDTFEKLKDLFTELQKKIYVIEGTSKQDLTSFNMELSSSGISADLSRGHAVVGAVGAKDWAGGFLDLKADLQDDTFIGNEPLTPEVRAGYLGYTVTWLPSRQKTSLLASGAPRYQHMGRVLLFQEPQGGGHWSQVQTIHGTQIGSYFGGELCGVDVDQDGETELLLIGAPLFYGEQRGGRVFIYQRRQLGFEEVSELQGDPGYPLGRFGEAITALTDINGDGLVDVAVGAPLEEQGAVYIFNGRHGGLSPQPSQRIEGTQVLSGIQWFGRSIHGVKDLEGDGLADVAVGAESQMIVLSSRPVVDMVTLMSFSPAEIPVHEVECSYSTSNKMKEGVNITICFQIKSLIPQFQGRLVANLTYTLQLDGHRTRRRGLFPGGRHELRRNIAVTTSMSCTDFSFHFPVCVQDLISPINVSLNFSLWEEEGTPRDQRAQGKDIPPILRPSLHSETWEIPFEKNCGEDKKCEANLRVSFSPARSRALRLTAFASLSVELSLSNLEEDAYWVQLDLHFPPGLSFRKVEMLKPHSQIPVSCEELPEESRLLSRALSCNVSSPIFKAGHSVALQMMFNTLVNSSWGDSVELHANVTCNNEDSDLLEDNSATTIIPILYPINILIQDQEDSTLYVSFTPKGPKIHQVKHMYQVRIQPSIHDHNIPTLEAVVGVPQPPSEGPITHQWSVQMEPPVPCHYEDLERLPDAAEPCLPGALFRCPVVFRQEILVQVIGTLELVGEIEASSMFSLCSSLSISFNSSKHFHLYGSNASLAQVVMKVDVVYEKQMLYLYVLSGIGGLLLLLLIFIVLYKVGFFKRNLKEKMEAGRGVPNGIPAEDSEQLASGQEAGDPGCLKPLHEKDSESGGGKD

[3] = target: T1, Intercellular adhesion molecule (ICAM-1), Integrin alpha-L/beta-2; experiment: Inhibition of LFA-1 mediated JY-8 cell adhesion to ICAM-1, range (3-18); format: functional, cell-based
Integrin alpha-L [4] = target: T2, Integrin alpha-L; experiment: Inhibition of intercellular adhesion molecule-1 (ICAM-1) binding to recombinant LFA-1, range (6-19)
[5] = target: T3, Intercellular adhesion molecule (ICAM-1), Integrin alpha-L/beta-2 (Homo sapiens) (UniProt P20701+P05362+P05107); settings: Rattus norvegicus
Mus musculus [6] = experiment: Inhibition of allergen induced total cell influx in mouse lung at 1 mg/kg; format: functional
[7] = target: T1, Intercellular adhesion molecule (ICAM-1), Integrin alpha-L/beta-2
Integrin alpha-L [8] = target: T2, Integrin alpha-L
[9] = target: T3, Intercellular adhesion molecule (ICAM-1), Integrin alpha-L/beta-2 (Homo sapiens); settings: Rattus norvegicus; remark: listed apart in the source
Mus musculus [10] = experiment: Inhibition of allergen induced neutrophil influx in mouse lung at 3 mg/kg; format: functional
Mus musculus [11] = experiment: Inhibition of allergen induced total cell influx in mouse lung at 10 mg/kg; format: functional
Mus musculus [12] = experiment: Inhibition of allergen induced total cell influx in mouse lung at 3 mg/kg; format: functional
Mus musculus [13] = experiment: Inhibition of allergen induced neutrophil influx in mouse lung at 1 mg/kg; format: functional
Mus musculus [14] = experiment: Inhibition of allergen induced neutrophil influx in mouse lung at 10 mg/kg; format: functional
Integrin alpha-L [15] = target: T2, Integrin alpha-L; experiment: Inhibition of intercellular adhesion molecule-1 (ICAM-1) binding to recombinant LFA-1
Integrin alpha-L [16] = target: T2, Integrin alpha-L; experiment: Inhibition of intercellular adhesion molecule-1 (ICAM-1) binding to recombinant LFA-1, range(140-150)
Integrin alpha-L [17] = target: T2, Integrin alpha-L; experiment: Inhibition of intercellular adhesion molecule-1 (ICAM-1) binding to recombinant LFA-1, range(40-60)
Integrin alpha-L [18] = target: T2, Integrin alpha-L; experiment: Inhibition of intercellular adhesion molecule-1 (ICAM-1) binding to recombinant LFA-1, range (6-9)
[19] = target: T1, Intercellular adhesion molecule (ICAM-1), Integrin alpha-L/beta-2; experiment: Inhibition of LFA-1 mediated JY-8 cell adhesion to ICAM-1, range (2-9); format: functional, cell-based
Integrin alpha-L [20] = target: T2, Integrin alpha-L; experiment: Inhibition of intercellular adhesion molecule-1 (ICAM-1) binding to recombinant LFA-1, range(50-60)
[21] = target: T1, Intercellular adhesion molecule (ICAM-1), Integrin alpha-L/beta-2; experiment: Inhibition of LFA-1 mediated JY-8 cell adhesion to ICAM-1, range (30-170); format: functional, cell-based
Integrin alpha-L [22] = target: T2, Integrin alpha-L; experiment: Inhibition of intercellular adhesion molecule-1 (ICAM-1) binding to recombinant LFA-1, range (3700-3800)
Integrin alpha-L [23] = target: T2, Integrin alpha-L; experiment: Inhibition of intercellular adhesion molecule-1 (ICAM-1) binding to recombinant LFA-1, range(5-5)
[24] = target: T1, Intercellular adhesion molecule (ICAM-1), Integrin alpha-L/beta-2; experiment: Inhibition of LFA-1 mediated JY-8 cell adhesion to ICAM-1, range(3-10); format: functional, cell-based
Integrin alpha-L [25] = target: T2, Integrin alpha-L; experiment: Inhibition of intercellular adhesion molecule-1 (ICAM-1) binding to recombinant LFA-1, range (10400-11300)
Integrin alpha-L [26] = target: T2, Integrin alpha-L; experiment: Inhibition of intercellular adhesion molecule-1 (ICAM-1) binding to recombinant LFA-1, range (6-10)
[27] = target: T1, Intercellular adhesion molecule (ICAM-1), Integrin alpha-L/beta-2; experiment: Inhibition of LFA-1 mediated JY-8 cell adhesion to ICAM-1, range (3-10); format: functional, cell-based
[28] = target: T1, Intercellular adhesion molecule (ICAM-1), Integrin alpha-L/beta-2; experiment: Inhibition of LFA-1 mediated JY-8 cell adhesion to ICAM-1; format: functional, cell-based
Integrin alpha-L [29] = target: T2, Integrin alpha-L; experiment: Inhibition of intercellular adhesion molecule-1 (ICAM-1) binding to recombinant LFA-1, range(6-13)
Integrin alpha-L [30] = target: T2, Integrin alpha-L; experiment: Inhibition of intercellular adhesion molecule-1 (ICAM-1) binding to recombinant LFA-1, range(100-200)
[31] = target: T1, Intercellular adhesion molecule (ICAM-1), Integrin alpha-L/beta-2; experiment: Inhibition of LFA-1 mediated JY-8 cell adhesion to ICAM-1, range (100-600); format: functional, cell-based
Integrin alpha-L [32] = target: T2, Integrin alpha-L; experiment: Inhibition of intercellular adhesion molecule-1 (ICAM-1) binding to recombinant LFA-1, range(6-9)
[33] = target: T1, Intercellular adhesion molecule (ICAM-1), Integrin alpha-L/beta-2; experiment: Inhibition of LFA-1 mediated JY-8 cell adhesion to ICAM-1, range (6-10); format: functional, cell-based

In the case of `O=C(O)C1CCN(C(=O)/C=C/c2ccc(Sc3ccc4c(c3)OCCO4)c(Cl)c2C(F)(F)F)CC1`, the IC50 [1] is reported as 2 nM and the IC50 (Integrin alpha-L [2]) is reported as 5 nM.
`CC(C)c1ccccc1Sc1ccc(/C=C/C(=O)N2CCC(C(=O)O)CC2)c(Cl)c1Cl` gave an IC50 [3] of 6 nM and an IC50 (Integrin alpha-L [4]) of 10 nM.
For `Cn1ccc2cc(Sc3ccc(/C=C/C(=O)N4CCC(C(=O)O)CC4)c(Cl)c3Cl)ccc21`, the Polymorphonuclear cells [5] was 7.48, the Total cells (Mus musculus [6]) was 291 number ul-1 and the IC50 [7] was 4 nM. The IC50 (Integrin alpha-L [8]) was 6 nM, the Polymorphonuclear cells [9] was 4.88 and the Neutrophils (Mus musculus [10]) was 31%. The Total cells (Mus musculus [11]) was 189 number ul-1, the Total cells (Mus musculus [12]) was 147 number ul-1 and the Neutrophils (Mus musculus [13]) was 36%. It also gave a Neutrophils (Mus musculus [14]) of 30%.
`COc1ccccc1Sc1cc(C)c(/C=C/C(=O)N2CCC(C(=O)O)CC2)cc1[N+](=O)[O-]` was tested, and the IC50 (Integrin alpha-L [15]) was over 20000 nM.
Work on `O=C(O)C1CCN(C(=O)/C=C/c2ccc(Sc3ccc4c(c3)OCCO4)c(Cl)c2)CC1` yielded an IC50 (Integrin alpha-L [16]) of 145 nM.
Work on `O=C(O)C1CCN(C(=O)/C=C/c2ccc(Sc3ccc4c(c3)OCCO4)c(C(F)(F)F)c2)CC1` yielded an IC50 (Integrin alpha-L [17]) of 50 nM.
In the case of `COc1ccccc1Sc1ccc(/C=C/C(=O)N2CCC(C(=O)O)CC2)c(C)c1`, the IC50 (Integrin alpha-L [15]) is reported as over 20000 nM.
`O=C(O)C1CCN(C(=O)/C=C/c2ccc(Sc3ccc4c(c3)OCCO4)c(Cl)c2Cl)CC1` gave an IC50 (Integrin alpha-L [18]) of 7 nM and an IC50 [19] of 6 nM.
Work on `COc1ccccc1Sc1cc(C)c(/C=C/C(=O)N2CCC(C(=O)O)CC2)cc1Cl` yielded an IC50 (Integrin alpha-L [15]) of over 20000 nM.
Work on `CC(=O)N1CCN(C(=O)/C=C/c2ccc(Sc3ccc4c(c3)OCCO4)c(C(F)(F)F)c2)CC1` yielded an IC50 (Integrin alpha-L [20]) of 55 nM and an IC50 [21] of 60 nM.
`CC(=O)N1CCN(C(=O)/C=C/c2ccc(Sc3cccc(Cl)c3Cl)c(S(=O)(=O)N(C)C)c2)CC1` showed an IC50 (Integrin alpha-L [22]) of 3750 nM.
Molecule `Cn1ccc2cc(Sc3ccc(/C=C/C(=O)N4CCC(C(=O)O)CC4)c(C(F)(F)F)c3C(F)(F)F)ccc21` has an IC50 (Integrin alpha-L [23]) of 5 nM and an IC50 [24] of 5 nM.
In the case of `COc1ccccc1Sc1ccc(/C=C/C(=O)N2CCN(C(C)=O)CC2)cc1OC`, the IC50 (Integrin alpha-L [25]) is reported as 10700 nM.
Molecule `COc1ccccc1Sc1ccc(/C=C/C(=O)N2CCOCC2)c(C(F)(F)F)c1Cl` has an IC50 (Integrin alpha-L [26]) of 8 nM and an IC50 [27] of 5 nM.
Work on `COc1ccccc1Sc1ccc(/C=C/C(=O)N2CCOCC2)c(Cl)c1Cl` yielded an IC50 [28] of 6 nM and an IC50 (Integrin alpha-L [29]) of 10 nM.
With `CC(=O)N1CCN(C(=O)/C=C/c2ccc(Sc3ccc(Cl)cc3Cl)c(Cl)c2)CC1` the IC50 (Integrin alpha-L [30]) was 140 nM and the IC50 [31] was 130 nM.
In the case of `CC(=O)N1CCN(C(=O)/C=C/c2ccc(Sc3ccc4c(c3)OCCO4)c(Cl)c2Cl)CC1`, the IC50 (Integrin alpha-L [32]) is reported as 7 nM and the IC50 [33] is reported as 8 nM.
